The results in this text go back to US20070196885A1, “Method of determining carbonic anhydrase i activity” (YAMASA CORPORATION, priority 2004, published 2007).

What all share (type): biochemical
Assay [1] deals with T1, human CAI (Homo sapiens, UniProt P00915). Briefly: Iodide-inhibited hydrolase activity, o-nitrophenyl acetate (Example 9). Particulars: 25-μg/mL human CAI solution; 9 mM o-nitrophenyl acetate solution; 300 mM potassium iodide solution; pH 8, room temperature, five minutes. The procedure: (§1) o-Nitrophenyl acetate was used as a substrate having higher reactivity with CAI than with CAII, and in combination, an iodide ion (I^−) was used as a CA inhibitor inhibiting CAI more potently than CAII.
T1 sequence (P00915 whole entry): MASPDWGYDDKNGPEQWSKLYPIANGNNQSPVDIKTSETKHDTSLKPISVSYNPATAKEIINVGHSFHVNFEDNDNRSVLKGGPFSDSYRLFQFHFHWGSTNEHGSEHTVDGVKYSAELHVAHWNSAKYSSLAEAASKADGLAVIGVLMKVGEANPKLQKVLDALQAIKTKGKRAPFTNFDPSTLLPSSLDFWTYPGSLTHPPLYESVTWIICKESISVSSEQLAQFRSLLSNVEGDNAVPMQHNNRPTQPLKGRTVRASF
(§2) • (1) By use of purified water, a 25-μg/mL human CAI solution and a 5-μg/mL human CAII solution were prepared. • (2) A 300 mM potassium iodide solution was prepared by use of a 30 mM dimethyl malonate buffer (pH 8). • (3) By use of purified water, a 9 mM o-nitrophenyl acetate solution was prepared. Before dissolution in water, the substrate had been dissolved in advance in acetone. […] Absorbance of the mixture was measured at 405 nm before and after reaction, and change in absorbance (ΔA) was calculated.
(§3) In order to prepare a sample reference and an inhibitor reference, only purified water and 30 mM dimethyl malonate buffer were used as reference solutions (1) and (2), respectively. Each of the references was allowed to react in the same manner as employed above, and absorbance of the mixture was measured, whereby change in absorbance of the reference was determined. […]

Assay [2] addresses T2, human CAII (Homo sapiens, UniProt P00918). The assay is described as above. Particulars: 5-μg/mL human CAII solution; 9 mM o-nitrophenyl acetate solution; 300 mM potassium iodide solution; pH 8, room temperature, five minutes. The procedure:
as §1, §2, §3

Assay [3] has as its target T1, human CAI. Briefly: Hydrolase activity with AEBSF and formaldehyde (Example 3). The conditions noted are these: 25-μg/mL human CAI solution; 9 mM substrate solution; 0.1 mM AEBSF and 50 mM formaldehyde; pH 8, room temperature, five minutes. The protocol: (§4) o-Nitrophenyl acetate was employed as a substrate having higher reactivity with CAI than with CAII. In addition, 4-(2-aminoethyl)benzenesulfony fluoride (AEBSF) serving as an inhibitor inhibiting a hydrolase other than CA, and formaldehyde serving as an enhancer of the inhibitor were employed.
(§5) • (1) By use of purified water, a 25-μg/mL human CAI solution and a 5-μg/mL human CAII solution were prepared. • (2) A 30 mM dimethyl malonate buffer (pH: 8) including 0.1 mM AEBSF, and 50 mM formaldehyde were provided. • (3) By use of purified water, a 9 mM o-nitrophenyl acetate solution was prepared. Before dissolution in water, the substrate had been dissolved in advance in acetone. […] Absorbance of the mixture was measured at 405 nm before and after reaction, and change in absorbance (ΔA) was calculated.
(§6) In order to prepare a sample reference, only purified water was used as solution (1). The reference was allowed to react in the same manner as above, and absorbance of the mixture was measured at 405 nm before and after reaction, whereby change in absorbance of the reference was determined. The change in absorbance intrinsic to CA was calculated by the following equation:
(§7) <Calculation> Change in CA-intrinsic absorbance=ΔA1−ΔA3; wherein
(§8) ΔA1 represents change in absorbance of a sample consisting of solution (1), solution (2), and solution (3), and […]

The target in assay [4] is T2, human CAII. Described as above. The conditions noted are these: 5-μg/mL human CAII solution; 9 mM substrate solution; 0.1 mM AEBSF and 50 mM formaldehyde; pH 8, room temperature, five minutes. The protocol: as §4, §5, §6, §7, §8
The target of assay [5] is T1, human CAI. Briefly: Acetazolamide-inhibited hydrolase activity (Example 5). The conditions noted are these: for Absorbance change (CA-intrinsic, inhibited by acetazolamide, 405 nm): 25-μg/mL human CAI solution, 3 mM acetazolamide solution, pH 8, room temperature, five minutes; for reactivity of substrate with CAI relative to reactivity with CAII: used in combination with acetazolamide (Example 5, Table 3). The text has this: (§9) o-Nitrophenyl acetate was employed as a substrate having higher reactivity with CAI than with CAII. As an inhibitor, acetazolamide, which inhibits both CAI and CAII, was used in combination. A reference substrate was produced from p-nitrophenyl acetate—a substrate having low specificity to CAI (reactive with both CAI and CAII)—and the above acetazolamide serving as a CA inhibitor in combination.
(§10) • (1) By use of purified water, a 25-μg/mL human CAI solution and a 5-μg/mL human CAII solution were prepared. • (2) A 3 mM acetazolamide solution was prepared by use of a 30 mM dimethyl malonate buffer (pH 8). Before dissolution in the buffer, acetazolamide had been dissolved in advance in dimethyl sulfoxide (DMSO). Thus, the solution has a DMSO content of 0.15% (v/v). • (3) By use of purified water, a 6 mM o-nitrophenyl acetate solution and a 3 mM p-nitrophenyl acetate solution were prepared. Before dissolution in water, each substrate had been dissolved in advance in acetone. […] Specifically, solutions of (1), (2), and (3) (each 50 μL) were mixed, and the mixture was allowed to react at room temperature for five minutes. Absorbance of the mixture was measured at 405 nm before and after reaction, and change in absorbance (ΔA) was calculated.
(§11) In order to prepare a sample reference and an inhibitor reference, only purified water and 0.15% (v/v) DMSO-containing 30 mM dimethyl malonate buffer were used as reference solutions (1) and (2), respectively. Each of the references was allowed to react in the same manner as above, and absorbance of the mixture was measured, whereby change in absorbance of the reference was determined.
(§12) <Calculation> Change in CA-intrinsic absorbance=[ΔA1−ΔA3]−[ΔA2−ΔA4]; wherein • ΔA1 represents change in absorbance of a sample consisting of solution (1), reference solution (2), and solution (3); • ΔA2 represents change in absorbance of a sample consisting of solutions (1), (2), and (3); • ΔA3 represents change in absorbance of a sample consisting of reference solutions (1) and (2), and solution (3); and • ΔA4 represents change in absorbance of a sample consisting of reference solution (1) and solutions (2) and (3). <Results>

In assay [6] the target is T2, human CAII. The description is as above. The conditions noted are these: 5-μg/mL human CAII solution, 3 mM acetazolamide solution, pH 8, room temperature, five minutes.
Excerpt: as §9, §10, §11, §12

The target of assay [7] is T1, human CAI. Briefly: Hydrolase activity, o-nitrophenyl acetate substrate, no inhibitor (Example 1). Particulars: 25-μg/mL human CAI solution, 9 mM substrate solution, pH 8, room temperature, five minutes. The protocol: (§13) o-Nitrophenyl acetate was employed as a substrate having higher reactivity with CAI than with CAII, and no inhibitor was used.
(§14) • (1) By use of purified water, a 25-μg/mL human CAI solution and a 5-μg/mL human CAII solution were prepared. • (2) A 30 mM dimethyl malonate buffer (pH: 8) was provided. • (3) By use of purified water, a 9 mM o-nitrophenyl acetate solution was prepared. Before dissolution in water, the substrate had been dissolved in advance in acetone. […] Specifically, solutions of (1), (2), and (3) (each 50 μL) were mixed, and the mixture was allowed to react at room temperature for five minutes. Absorbance of the mixture was measured at 405 nm before and after reaction, and change in absorbance (ΔA) was calculated.
as §6, §7
(§15) ΔA1 represents change in absorbance of a sample consisting of solutions (1), (2), and (3), and
(§16) ΔA3 represents change in absorbance of a sample consisting of reference solution (1) and solutions (2) and (3).

Assay [8] addresses T2, human CAII. Described as above. Particulars: 5-μg/mL human CAII solution, 9 mM substrate solution, pH 8, room temperature, five minutes. The protocol:
as §13, §14, §6, §7, §15, §16

The target in assay [9] is T1, human CAI. As to the kind of experiment: Iodide-inhibited hydrolase activity, p-nitrophenyl acetate (Example 7). Particulars: 25-μg/mL human CAI solution; 3 mM p-nitrophenyl acetate solution; 3 mM potassium iodide solution; pH 8, room temperature, five minutes. The protocol:
(§17) p-Nitrophenyl acetate serving as a substrate reacting with both CAI and CAII and an iodide (I^−) serving as a CA inhibitor inhibiting CAI more potently than CAII were employed in combination.
as §14, with “(2) A 3 mM potassium iodide solution was prepared by use of a 30 mM” for “(2) A 30 mM”, “malonate buffer (pH 8). • (3)” for “malonate buffer (pH: 8) was provided. • (3)”, “water, a 3 mM p-nitrophenyl” for “water, a 9 mM o-nitrophenyl”, “3 mM p-nitrophenyl acetate solution” for “9 mM o-nitrophenyl acetate solution”
as §3

The target in assay [10] is T2, human CAII. The description is as above. Particulars: 5-μg/mL human CAII solution; 3 mM p-nitrophenyl acetate solution; 3 mM potassium iodide solution; pH 8, room temperature, five minutes. The protocol: as §17
as §14, with “(2) A 3 mM potassium iodide solution was prepared by use of a 30 mM” for “(2) A 30 mM”, “malonate buffer (pH 8). • (3)” for “malonate buffer (pH: 8) was provided. • (3)”, “water, a 3 mM p-nitrophenyl” for “water, a 9 mM o-nitrophenyl”, “3 mM p-nitrophenyl acetate solution” for “9 mM o-nitrophenyl acetate solution”
as §3

Where [11] appears, read: 6 mM o-nitrophenyl acetate solution.
Setting [12] is: 3 mM p-nitrophenyl acetate solution.

Regarding `CC(=O)Oc1ccccc1[N+](=O)[O-]` [o-Nitrophenyl acetate, o-nitrophenyl acetate], the “Absorbance change (CA-intrinsic, inhibited by iodide, 405 nm)” value on human CAI [1] was found to be 0.504; at human CAII [2], 0.009. Besides, the “Absorbance change (CA-intrinsic, 405 nm)” value on human CAI [3] came to 0.329; at human CAII [4], 0.008; on human CAI [7], 0.511; on human CAII [8], 0.011. The “Absorbance change (CA-intrinsic, inhibited by acetazolamide, 405 nm)” value on human CAI [5] (setting [11]) stood at 0.285; on human CAII [6] (setting [11]), 0.004. Moreover, the “reactivity of substrate with CAI relative to reactivity with CAII” value at human CAI [5] was “higher than twice the reactivity with CAII”.

In the case of `CC(=O)Oc1ccc([N+](=O)[O-])cc1` [p-Nitrophenyl acetate, p-nitrophenyl acetate], the “Absorbance change (CA-intrinsic, inhibited by iodide, 405 nm)” value on human CAI [9] came out at 0.052; on human CAII [10], 0.005. The “Absorbance change (CA-intrinsic, inhibited by acetazolamide, 405 nm)” value is 0.283 at human CAI [5] (setting [12]) and 0.162 on human CAII [6] (setting [12]). Moreover, the “reactivity of substrate with CAI relative to reactivity with CAII” value at human CAI [5] was “lower than twice the reactivity with CAII”.
